Reference: patent US20250270172A1, “Pyrimidine Derivatives As Modulators of the 5-HT2A Serotonin Receptor Useful For The Treatment of Disorders Related Thereto” (Arena Pharmaceuticals, Inc., priority 2020, published 2025)
“And” between values parts separate entries of the source, which are not always exact repeats. Identical values can stand only once. Like-named read-outs stand apart in the source and are kept apart here.

Experiments:
5-HT2B = 5-HT2B (Homo sapiens (Human), UniProt P41595); assay: HTRF IP-One antagonist assay, 5-HT2B; assay type: cell-based; conditions: HEK293 cells stably expressing receptor, inositol phosphate accumulation, 80 nM 5-HT in Assay Buffer;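 also: clonal HEK293 line with low 5-HT2B expression (estimated 150-200 fmol/mg by radioligand binding), IP-One HTRF readout, 10-point curves from 10 µM in 5-fold steps, triplicate points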
5-HT2A [1] = target: T1, 5-HT2A (Homo sapiens (Human), UniProt P28223); assay: Radioligand binding assay, [^3H]5-HT competition, 5-HT2A; conditions: read-out: 5-HT2A serotonin binding Ki value
5-HT2A [2] = target: T1, 5-HT2A; assay: HTRF IP-One antagonist assay, 5-HT2A; assay type: cell-based; conditions: HEK293 cells stably expressing receptor, inositol phosphate accumulation, 80 nM 5-HT in Assay Buffer;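 also: clonal line with low receptor density (about 50–70 fmol/mg), 10-point dose-response from 10 µM in 5-fold steps, HTRF detection after 1 hr, triplicate points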
5-HT2C = 5-HT2C (Homo sapiens (Human), UniProt P28335); assay: HTRF IP-One antagonist assay, 5-HT2C; assay type: cell-based; conditions: HEK293 cells stably expressing receptor, inositol phosphate accumulation, 80 nM 5-HT in Assay Buffer;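 also: clonal HEK293 line with low 5-HT2C density (10–20 fmol/mg), HTRF detection of IP-One, 10-point dose curves from 10 µM in 5-fold steps, triplicate points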
[3] = [^3H]5-HT radioligand, membranes of HEK293 cells expressing recombinant 5-HT2A, Ki from IC50 by Cheng-Prusoff

Chain of 5-HT2B (P41595 whole entry): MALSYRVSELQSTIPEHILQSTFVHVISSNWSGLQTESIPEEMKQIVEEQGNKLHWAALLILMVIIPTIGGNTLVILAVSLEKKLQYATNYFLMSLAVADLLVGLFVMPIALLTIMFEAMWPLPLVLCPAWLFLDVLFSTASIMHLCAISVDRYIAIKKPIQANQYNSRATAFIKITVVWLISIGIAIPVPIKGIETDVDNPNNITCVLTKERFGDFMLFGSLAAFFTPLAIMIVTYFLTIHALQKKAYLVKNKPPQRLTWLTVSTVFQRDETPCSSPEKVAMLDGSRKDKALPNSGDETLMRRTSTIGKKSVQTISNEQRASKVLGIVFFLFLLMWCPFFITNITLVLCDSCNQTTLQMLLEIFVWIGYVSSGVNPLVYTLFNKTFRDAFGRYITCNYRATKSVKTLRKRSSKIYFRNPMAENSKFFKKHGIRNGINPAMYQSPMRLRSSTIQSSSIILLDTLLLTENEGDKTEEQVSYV
T1 sequence (P28223 whole entry): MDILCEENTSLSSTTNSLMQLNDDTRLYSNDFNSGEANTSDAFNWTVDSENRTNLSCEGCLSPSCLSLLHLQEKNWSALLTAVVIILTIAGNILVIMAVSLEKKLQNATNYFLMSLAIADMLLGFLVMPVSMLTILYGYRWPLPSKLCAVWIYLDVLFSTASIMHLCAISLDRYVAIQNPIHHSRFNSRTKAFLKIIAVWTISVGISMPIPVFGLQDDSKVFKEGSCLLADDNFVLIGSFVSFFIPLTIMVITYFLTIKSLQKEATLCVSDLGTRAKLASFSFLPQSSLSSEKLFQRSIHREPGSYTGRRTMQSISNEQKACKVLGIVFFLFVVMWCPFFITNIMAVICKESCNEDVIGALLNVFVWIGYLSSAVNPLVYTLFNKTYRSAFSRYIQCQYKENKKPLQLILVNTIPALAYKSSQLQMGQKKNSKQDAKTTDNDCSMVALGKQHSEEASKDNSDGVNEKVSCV
Chain of 5-HT2C (P28335 33-458): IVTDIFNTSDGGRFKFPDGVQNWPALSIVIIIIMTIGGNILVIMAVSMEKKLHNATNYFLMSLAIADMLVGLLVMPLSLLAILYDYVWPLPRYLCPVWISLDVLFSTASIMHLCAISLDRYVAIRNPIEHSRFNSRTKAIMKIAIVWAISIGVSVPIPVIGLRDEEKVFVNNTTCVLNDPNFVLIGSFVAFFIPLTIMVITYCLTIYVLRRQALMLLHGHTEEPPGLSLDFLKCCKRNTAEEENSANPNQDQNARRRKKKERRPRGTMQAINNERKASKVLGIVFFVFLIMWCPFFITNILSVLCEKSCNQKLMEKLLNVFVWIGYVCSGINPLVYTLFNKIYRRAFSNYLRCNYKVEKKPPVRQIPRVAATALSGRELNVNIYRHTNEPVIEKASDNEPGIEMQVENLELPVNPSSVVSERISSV

SMILES: Cc1ncnc(C)c1-c1cc(NC(=O)C2(F)CC2)ccc1OCCN1CCC1 [Compound 305, N-(4-(2-(azetidin-1-yl)ethoxy)-3-(4,6-dimethylpyrimidin-5-yl)phenyl)-1-fluorocyclopropane-1-carboxamide]
- IC50 (5-HT2B): 100000 nM
- Ki (5-HT2A [1]; [3]): 2.61 nM
- IC50 (5-HT2A [2]): 4.44 nM
- IC50 (5-HT2C): 100000 nM

SMILES: Cc1ncsc1CC(=O)Nc1ccc(OCCN2CCC2)c(-c2c(C)ncnc2C)c1 [Compound 307, N-(4-(2-(azetidin-1-yl)ethoxy)-3-(4,6-dimethylpyrimidin-5-yl)phenyl)-2-(4-methylthiazol-5-yl)acetamide]
- IC50 (5-HT2B): ≥ 100000 nM
- Ki (5-HT2A [1]): 5.89 nM
- IC50 (5-HT2A [2]): 9.84 nM
- IC50 (5-HT2C): 100000 nM

SMILES: Cc1ncnc(C)c1-c1cc(NC(=O)c2ccccc2)ccc1OCCN1CCC1 [Compound 308, N-(4-(2-(azetidin-1-yl)ethoxy)-3-(4,6-dimethylpyrimidin-5-yl)phenyl)benzamide]
- IC50 (5-HT2B): 100000 nM
- Ki (5-HT2A [1]; [3]): 3.28 nM
- IC50 (5-HT2A [2]): 14.7 nM
- IC50 (5-HT2C): 100000 nM

SMILES: Cc1ncnc(C)c1-c1cc(NC(=O)c2ccc(F)cc2)ccc1OCCN1CCC1 [Compound 309, N-(4-(2-(azetidin-1-yl)ethoxy)-3-(4,6-dimethylpyrimidin-5-yl)phenyl)-4-fluorobenzamide]
- IC50 (5-HT2B): 806 nM
- Ki (5-HT2A [1]; [3]): 1.71 nM
- IC50 (5-HT2A [2]): 6.32 nM
- IC50 (5-HT2C): 100000 nM

SMILES: COc1cccc(C(=O)Nc2ccc(OCCN3CCC3)c(-c3c(C)ncnc3C)c2)c1 [Compound 310, N-(4-(2-(azetidin-1-yl)ethoxy)-3-(4,6-dimethylpyrimidin-5-yl)phenyl)-3-methoxybenzamide]
- IC50 (5-HT2B): 1910 nM
- Ki (5-HT2A [1]; [3]): 1.58 nM
- IC50 (5-HT2A [2]): 3.31 nM
- IC50 (5-HT2C): 100000 nM

SMILES: Cc1ncnc(C)c1-c1cc(NC(=O)Cc2cncc(F)c2)ccc1OCCN1CCC1 [Compound 314, N-(4-(2-(azetidin-1-yl)ethoxy)-3-(4,6-dimethylpyrimidin-5-yl)phenyl)-2-(5-fluoropyridin-3-yl)acetamide]
- IC50 (5-HT2B): 100000 nM
- Ki (5-HT2A [1]; [3]): 5.42 nM
- IC50 (5-HT2A [2]): 15.3 nM
- IC50 (5-HT2C): 100000 nM

SMILES: Cc1ncnc(C)c1-c1cc(NC(=O)c2c(F)cnn2C)ccc1OCCN1CCC1 [Compound 316, N-(4-(2-(azetidin-1-yl)ethoxy)-3-(4,6-dimethylpyrimidin-5-yl)phenyl)-4-fluoro-1-methyl-1H-pyrazole-5-carboxamide]
- IC50 (5-HT2B): 3190 nM
- Ki (5-HT2A [1]; [3]): 4.98 nM
- IC50 (5-HT2A [2]): 6.99 nM
- IC50 (5-HT2C): 100000 nM

SMILES: COc1ccc(C(=O)Nc2ccc(OCCN3CCC3)c(-c3c(C)ncnc3C)c2)cc1 [Compound 318, N-(4-(2-(azetidin-1-yl)ethoxy)-3-(4,6-dimethylpyrimidin-5-yl)phenyl)-4-methoxybenzamide]
- IC50 (5-HT2B): 4500 nM
- Ki (5-HT2A [1]; [3]): 4.09 nM
- IC50 (5-HT2A [2]): 16.8 nM
- IC50 (5-HT2C): 100000 nM

SMILES: Cc1ncnc(C)c1-c1cc(NC(=O)c2ccccc2F)ccc1OCCN1CCC1 [Compound 319, N-(4-(2-(azetidin-1-yl)ethoxy)-3-(4,6-dimethylpyrimidin-5-yl)phenyl)-2-fluorobenzamide]
- IC50 (5-HT2B): 2360 nM
- Ki (5-HT2A [1]; [3]): 3.62 nM
- IC50 (5-HT2A [2]): 14.3 nM
- IC50 (5-HT2C): 100000 nM

SMILES: Cc1ncnc(C)c1-c1cc(NC(=O)c2cccc(C#N)c2)ccc1OCCN1CCC1 [Compound 325, N-(4-(2-(azetidin-1-yl)ethoxy)-3-(4,6-dimethylpyrimidin-5-yl)phenyl)-3-cyanobenzamide]
- IC50 (5-HT2B): 2890 nM
- Ki (5-HT2A [1]; [3]): 1.7 nM
- IC50 (5-HT2A [2]): 8.54 nM
- IC50 (5-HT2C): 100000 nM

SMILES: Cc1ncnc(C)c1-c1cc(NC(=O)C2CC2)ccc1OCCN1CCC1 [Compound 344, N-(4-(2-(azetidin-1-yl)ethoxy)-3-(4,6-dimethylpyrimidin-5-yl)phenyl)cyclopropanecarboxamide]
- IC50 (5-HT2B): 1210 nM
- Ki (5-HT2A [1]; [3]): 6.53 nM
- IC50 (5-HT2A [2]): 10.2 nM
- IC50 (5-HT2C): 100000 nM

SMILES: COC1CCN(CCOc2ccc(NC(=O)C3CC3)cc2-c2c(C)ncnc2C)CC1 [Compound 351, N-(3-(4,6-dimethylpyrimidin-5-yl)-4-(2-(4-methoxypiperidin-1-yl)ethoxy)phenyl)cyclopropanecarboxamide]
- IC50 (5-HT2B): 100000 nM
- Ki (5-HT2A [1]; [3]): 4.56 nM
- IC50 (5-HT2A [2]): 7.03 nM
- IC50 (5-HT2C): 100000 nM

SMILES: CO[C@@H]1CCN(CCOc2ccc(NC(=O)C3CC3)cc2-c2c(C)ncnc2C)C1 [Compound 353, (R)—N-(3-(4,6-dimethylpyrimidin-5-yl)-4-(2-(3-methoxypyrrolidin-1-yl)ethoxy)phenyl)cyclopropanecarboxamide]
- IC50 (5-HT2B): 100000 nM
- Ki (5-HT2A [1]; [3]): 4.06 nM
- IC50 (5-HT2A [2]): 24.8 nM
- IC50 (5-HT2C): 100000 nM

SMILES: COCCNCCOc1ccc(NC(=O)C2CC2)cc1-c1c(C)ncnc1C [Compound 361, N-(3-(4,6-dimethylpyrimidin-5-yl)-4-(2-((2-methoxyethyl)amino)ethoxy)phenyl)cyclopropanecarboxamide]
- IC50 (5-HT2B): 100000 nM
- Ki (5-HT2A [1]; [3]): 4.33 nM
- IC50 (5-HT2A [2]): 9.27 nM
- IC50 (5-HT2C): 100000 nM

SMILES: Cc1ncnc(C)c1-c1cc(NC(=O)C2CC2)ccc1OC1CNC1 [Compound 396, N-[4-(azetidin-3-yloxy)-3-(4,6-dimethylpyrimidin-5-yl)phenyl]cyclopropanecarboxamide]
- IC50 (5-HT2B): 100000 nM
- Ki (5-HT2A [1]; [3]): 5.93 nM
- IC50 (5-HT2A [2]): 50.5 nM
- IC50 (5-HT2C): 100000 nM

SMILES: Cc1ncnc(C)c1-c1cc(NC(=O)C2(F)CC2)ccc1OC1CNC1 [Compound 398, N-(4-(azetidin-3-yloxy)-3-(4,6-dimethylpyrimidin-5-yl)phenyl)-1-fluorocyclopropane-1-carboxamide]
- IC50 (5-HT2B): 100000 nM
- Ki (5-HT2A [1]; [3]): 6.26 nM
- IC50 (5-HT2A [2]): 33.8 nM
- IC50 (5-HT2C): 100000 nM

SMILES: Cc1ncnc(C)c1-c1cc(NC(=O)c2ccccc2)ccc1OC1CNC1 [Compound 400, N-(4-(azetidin-3-yloxy)-3-(4,6-dimethylpyrimidin-5-yl)phenyl)benzamide]
- IC50 (5-HT2B): 100000 nM
- Ki (5-HT2A [1]; [3]): 4.2 nM
- IC50 (5-HT2A [2]): 38.6 nM
- IC50 (5-HT2C): 100000 nM

SMILES: Cc1ncnc(C)c1-c1cc(NC(=O)[C@@H]2C[C@H]2F)ccc1O[C@@H]1CCCNC1 [Compound 409, (1S,2R)—N-(3-(4,6-dimethylpyrimidin-5-yl)-4-(((R)-piperidin-3-yl)oxy)phenyl)-2-fluorocyclopropane-1-carboxamide]
- IC50 (5-HT2B): 2920 nM
- Ki (5-HT2A [1]; [3]): 6.67 nM
- IC50 (5-HT2A [2]): 18.9 nM
- IC50 (5-HT2C): 100000 nM

SMILES: Cc1ncnc(C)c1-c1cc(NC(=O)C2(F)CC2)ccc1OC[C@H]1CCCCN1 [Compound 438, N-[3-(4,6-dimethylpyrimidin-5-yl)-4-[[(2R)-2-piperidyl]methoxy]phenyl]-1-fluoro-cyclopropanecarboxamide]
- IC50 (5-HT2B): 100000 nM
- Ki (5-HT2A [1]; [3]): 9.18 nM
- IC50 (5-HT2A [2]): 16.4 nM
- IC50 (5-HT2C): 100000 nM

SMILES: Cc1ncnc(C)c1-c1cc(NC(=O)C2(F)CCC2)ccc1OC[C@H]1CCCCN1 [Compound 444, (R)—N-(3-(4,6-dimethylpyrimidin-5-yl)-4-(piperidin-2-ylmethoxy)phenyl)-1-fluorocyclobutane-1-carboxamide]
- IC50 (5-HT2B): 100000 nM
- Ki (5-HT2A [1]; [3]): 4.93 nM
- IC50 (5-HT2A [2]): 11.8 nM
- IC50 (5-HT2C): 100000 nM

SMILES: CCOC1CC1C(=O)Nc1ccc(OC[C@H]2CCCCN2)c(-c2c(C)ncnc2C)c1 (stereo partly drawn) [Compound 447, N-(3-(4,6-dimethylpyrimidin-5-yl)-4-(((R)-piperidin-2-yl)methoxy)phenyl)-2-ethoxycyclopropane-1-carboxamide]
- IC50 (5-HT2B): 100000 nM
- Ki (5-HT2A [1]; [3]): 7.08 nM and 19.6 nM
- IC50 (5-HT2A [2]): 9.05 nM
- IC50 (5-HT2C): 100000 nM

SMILES: COCCNCCOc1ccc(NC(=O)C2(F)CC2)cc1-c1c(C)ncnc1C [Compound 453, N-(3-(4,6-dimethylpyrimidin-5-yl)-4-(2-((2-methoxyethyl)amino)ethoxy)phenyl)-1-fluorocyclopropane-1-carboxamide]
- IC50 (5-HT2B): 100000 nM
- Ki (5-HT2A [1]; [3]): 4.76 nM
- IC50 (5-HT2A [2]): 4.84 nM
- IC50 (5-HT2C): 100000 nM
